Assay results reported in ChEMBL document CHEMBL1201862, “PubChem BioAssay data set” (2004).
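Test compounds were applied to cells in 96-well plates for 48 hours at 5 doses. GI50: concentration for 50% inhibition of growth.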 Activity calls are given as the source filed them. No stated cut-off is given here; in the data, active = GI50 up to about 1.1 µM and inactive = higher. Positions of bridges follow the written chain, without caps; N, C: chain ends. Non-standard residues stand in square brackets, D forms with d. Residues, ends and D or L forms follow the SMILES beside them. *: point of attachment. Cbz = O=C(OCc1ccccc1)*; Aib = CC(C)(N)C(=O)O; OBn = c1ccc(CO*)cc1; βAla = NCCC(=O)O

How the values were obtained:
Test in all cases: growth of human tumour cells (NCI), 48 h
[1] = test system: SW-620
[2] = test system: OVCAR-3
[3] = test system: UACC-257
[4] = test system: SK-MEL-2
[5] = test system: 786-0
[6] = test system: Hs-578T
[7] = test system: SR
[8] = test system: OVCAR-5
[9] = test system: TK-10
[10] = test system: HCC 2998
[11] = test system: HOP-62
[12] = test system: SF-539
[13] = test system: HCT-116
[14] = test system: SK-MEL-5
[15] = test system: BT-549
[16] = test system: COLO 205
[17] = test system: HOP-92
[18] = test system: U-251
[19] = test system: SF-268
[20] = test system: UO-31

| SMILES | GI50 [1] | GI50 [2] | GI50 [3] | GI50 [4] | GI50 [5] | GI50 [6] | GI50 [7] | GI50 [8] | GI50 [9] | GI50 [10] | GI50 [11] | GI50 [12] | GI50 [13] | GI50 [14] | GI50 [15] | GI50 [16] | GI50 [17] | GI50 [18] | GI50 [19] | GI50 [20] |
| --- | --- | --- | --- | --- | --- | --- | --- | --- | --- | --- | --- | --- | --- | --- | --- | --- | --- | --- | --- | --- |
| CCOP(=O)(Nc1ccc2oc(=O)c3ccccc3c2c1)OCC | > 100 µM (inactive) | 45.2 µM (inactive) | > 100 µM (inactive) | 62.5 µM (inactive) | 76.7 µM (inactive) | 19.8 µM (inactive) | 31.7 µM (inactive) | 80.4 µM (inactive) | 49.1 µM (inactive) | 88.5 µM (inactive) | 62.1 µM (inactive) | > 100 µM (inactive) | 66.2 µM (inactive) | 28.6 µM (inactive) | 15.2 µM (inactive) | > 100 µM (inactive) | 24.6 µM (inactive) | 75.2 µM (inactive) | 56.6 µM (inactive) |  |
| COc1cc(C2c3cc4c(cc3OC(Nc3ccc(C(=O)O)cc3)C2C)OCO4)cc(OC)c1OC (stereo not given) | 0.35 µM (active) | 0.285 µM (active) | > 40.3 µM (inactive) | 0.579 µM (active) | 0.468 µM (active) | 1.39 µM (inactive) | 0.204 µM (active) | 0.841 µM (active) | 25.4 µM (inactive) | 0.295 µM (active) | 0.446 µM (active) | 0.218 µM (active) | 0.31 µM (active) | 0.0735 µM (active) | 0.467 µM (active) | 0.202 µM (active) | 4.13 µM (inactive) | 0.346 µM (active) | 0.504 µM (active) | 0.426 µM (active) |
| COc1ccc(Oc2nc3c(N)cc(C(F)(F)F)cc3nc2-c2ccccc2)cc1 | 58.1 µM (inactive) |  | 39.2 µM (inactive) | 12.2 µM (inactive) | 20.5 µM (inactive) | 16.3 µM (inactive) | 19.9 µM (inactive) |  | 38.5 µM (inactive) | 38.8 µM (inactive) | 22.8 µM (inactive) | 23.5 µM (inactive) | 27.7 µM (inactive) | 29.9 µM (inactive) | 47.1 µM (inactive) | 12.8 µM (inactive) | 40.8 µM (inactive) | 35.6 µM (inactive) | 20.6 µM (inactive) | 60.8 µM (inactive) |
| Cc1cccc2c(N)c3cccc(C(=O)NCC[N+](C)(C)Cc4ccc([N+](=O)[O-])n4C)c3nc12 | 18.6 µM (inactive) | 24.7 µM (inactive) | 53.5 µM (inactive) | 67.6 µM (inactive) | 7.45 µM (inactive) | 7.26 µM (inactive) | 3.44 µM (inactive) | 17.6 µM (inactive) | 47.9 µM (inactive) | 10.6 µM (inactive) | 5.25 µM (inactive) | 13.5 µM (inactive) | 14.6 µM (inactive) | 21.7 µM (inactive) | > 42.6 µM (inactive) | 9.82 µM (inactive) | 33.5 µM (inactive) | 8.26 µM (inactive) | 8.47 µM (inactive) | 16.2 µM (inactive) |
| CC(C)c1ccc(C2NC(S)=NC3=C2c2ccccc2C3=O)cc1 (stereo not given) | 23.4 µM (inactive) | 26.2 µM (inactive) | > 41.4 µM (inactive) | 17.4 µM (inactive) | 22.5 µM (inactive) | 14.8 µM (inactive) | 8.95 µM (inactive) | 34 µM (inactive) | 34 µM (inactive) | > 36.6 µM (inactive) | 25.8 µM (inactive) | 18.7 µM (inactive) | 23.6 µM (inactive) | 20.1 µM (inactive) | 17.1 µM (inactive) | 26.4 µM (inactive) | 22.3 µM (inactive) | 26.7 µM (inactive) | 19.9 µM (inactive) | 21.5 µM (inactive) |
| C1CCNCC1.S=C(S)N1CCCCC1 | 0.573 µM (active) | 71 µM (inactive) | 28.4 µM (inactive) | 85.3 µM (inactive) | 97.3 µM (inactive) | 163 µM (inactive) | 0.46 µM (active) | 213 µM (inactive) | 135 µM (inactive) | 100 µM (inactive) | 129 µM (inactive) | 80.7 µM (inactive) | 14.1 µM (inactive) | 1.74 µM (inactive) | 406 µM (inactive) |  | 95.1 µM (inactive) | 1.46 µM (inactive) | 75.7 µM (inactive) | 58.7 µM (inactive) |
| COc1ccc(N2C(=O)CSC2c2cc3cc(Br)ccc3nc2Cl)cc1 (stereo not given) | > 50 µM (inactive) | > 50 µM (inactive) | 17.9 µM (inactive) | 35.6 µM (inactive) | > 50 µM (inactive) | > 50 µM (inactive) | 18.7 µM (inactive) | > 50 µM (inactive) | > 50 µM (inactive) | > 50 µM (inactive) | > 50 µM (inactive) | > 50 µM (inactive) | > 50 µM (inactive) | 37.4 µM (inactive) | > 50 µM (inactive) | > 50 µM (inactive) | > 50 µM (inactive) |  | > 50 µM (inactive) | > 50 µM (inactive) |
| CC(C)CC(=O)OC[n+]1cccc(-c2c(COC(=O)NC(C)C)c(COC(=O)NC(C)C)c3n2CCC3)c1 | 51.1 µM (inactive) | > 100 µM (inactive) | > 100 µM (inactive) | 34 µM (inactive) | 27.5 µM (inactive) | 74.1 µM (inactive) | > 100 µM (inactive) | 60.8 µM (inactive) | 63.5 µM (inactive) | > 100 µM (inactive) | 41.7 µM (inactive) | 37.5 µM (inactive) | 44 µM (inactive) | 58.5 µM (inactive) | 77.3 µM (inactive) | 70.3 µM (inactive) | 26.6 µM (inactive) | 41.5 µM (inactive) | 29 µM (inactive) | 31.3 µM (inactive) |
| CCOc1cc(NC(C)=O)ccc1C(=O)NN1C(=O)/C(=C/c2ccco2)N=C1c1ccccc1 | > 100 µM (inactive) | > 100 µM (inactive) | > 100 µM (inactive) | > 100 µM (inactive) | > 100 µM (inactive) | 42.8 µM (inactive) | 41.5 µM (inactive) | > 100 µM (inactive) |  | > 100 µM (inactive) | > 100 µM (inactive) | > 100 µM (inactive) | > 100 µM (inactive) | 54.6 µM (inactive) | > 100 µM (inactive) | > 100 µM (inactive) | 36.2 µM (inactive) |  | > 100 µM (inactive) | 61.7 µM (inactive) |
| CC1(CCc2ccccc2)CC1(Br)Br (stereo not given) | > 100 µM (inactive) | 18 µM (inactive) | 25.8 µM (inactive) | 17.8 µM (inactive) | 21 µM (inactive) | 42.9 µM (inactive) | 19.8 µM (inactive) | 32.6 µM (inactive) |  | 40.9 µM (inactive) | 51.9 µM (inactive) | > 100 µM (inactive) | 30.3 µM (inactive) | 13.1 µM (inactive) | > 100 µM (inactive) | 20.8 µM (inactive) | 13 µM (inactive) | 31.4 µM (inactive) | 41.4 µM (inactive) | 39.4 µM (inactive) |
| NS(=O)(=O)c1ccc(NC(=S)NC(=O)Nc2ccc(Cl)c(Cl)c2)cc1 | 16.5 µM (inactive) | 18.5 µM (inactive) | 17.9 µM (inactive) | 15 µM (inactive) | 14.9 µM (inactive) | 25.1 µM (inactive) | < 0.01 µM (active) | 12.8 µM (inactive) | 25.1 µM (inactive) | 14.6 µM (inactive) | 17.4 µM (inactive) | 18.2 µM (inactive) | 13.4 µM (inactive) | 16.1 µM (inactive) | 15.4 µM (inactive) | 14 µM (inactive) | 26.5 µM (inactive) | 14.9 µM (inactive) | 12.8 µM (inactive) | 4.56 µM (inactive) |
| CNC(=O)C(C)NC(=O)C(Cc1ccccc1)NC(=O)OC(C)(C)C (stereo not given) | > 100 µM (inactive) | > 100 µM (inactive) | > 100 µM (inactive) | > 100 µM (inactive) | > 100 µM (inactive) | > 100 µM (inactive) | > 100 µM (inactive) | > 100 µM (inactive) | > 100 µM (inactive) | > 100 µM (inactive) | > 100 µM (inactive) | > 100 µM (inactive) | > 100 µM (inactive) | > 100 µM (inactive) | > 100 µM (inactive) | > 100 µM (inactive) | > 100 µM (inactive) | > 100 µM (inactive) | > 100 µM (inactive) | > 100 µM (inactive) |
| NC1=NCC(CN2CCCC2)O1 (stereo not given) | > 100 µM (inactive) | > 100 µM (inactive) | > 100 µM (inactive) | > 100 µM (inactive) | > 100 µM (inactive) | > 100 µM (inactive) | > 100 µM (inactive) | > 100 µM (inactive) | > 100 µM (inactive) | > 100 µM (inactive) | > 100 µM (inactive) | > 100 µM (inactive) | > 100 µM (inactive) | > 100 µM (inactive) | > 100 µM (inactive) | > 100 µM (inactive) | > 100 µM (inactive) | > 100 µM (inactive) | > 100 µM (inactive) | > 100 µM (inactive) |
| CC1(C)NC(=O)C(NC(=O)C(CC(=O)OCc2ccccc2)NC(=O)OCc2ccccc2)CCCCNC(=O)CCNC1=O (stereo not given) (Cbz-D(OBn)K[Aib][βAla]; lactam 2-C; configuration not given here) | > 100 µM (inactive) | > 100 µM (inactive) |  |  | > 100 µM (inactive) | > 100 µM (inactive) | > 10 µM (inactive) | > 100 µM (inactive) | > 100 µM (inactive) | > 100 µM (inactive) | > 100 µM (inactive) | > 100 µM (inactive) | > 100 µM (inactive) | > 100 µM (inactive) | > 100 µM (inactive) | > 100 µM (inactive) | > 100 µM (inactive) | > 100 µM (inactive) | > 100 µM (inactive) | > 100 µM (inactive) |
